These results are taken from patent US6465654B2, “Process for preparing 1-substituted, 2-substituted 1H-imidazo[4, 5-c]quinoline-4-amines” (3M Innovative Properties Company, priority 1991, dated 2002).

Each structure is given as a SMILES string. Some results are limits rather than exact numbers.

Assay [1] concerns vesicular stomatitis virus (VSV). The assay is described as follows: microbe, parasite or virus in culture. It counts as cell-based. The following applies: Vesicular stomatitis virus, read-out: VSV Yield Inhibition.
A further assay relates to interferon-α. The assay is described as follows: Interferon-α induction in human cells, PBM. It counts as cell-based. The following applies: 24 hours.
In a further assay the test system is interferon. The assay is described as follows: Interferon induction in mice. The format is in vivo. As to conditions: mouse serum. How it is done:
One hour later blood samples are withdrawn from the first group. The samples are pooled then centrifuged. The serum is removed from the centrifuge tube, split into two portions, then placed in freezing vials and maintained at −70° C. until analysis. This procedure is repeated at 2 hours with the second group of mice and at 4 hours with the third group of mice. Samples are assayed as described above in connection with the analysis of interferon induction in human cells. The results are expressed in the table below as α/β reference units/mL based on the value obtained for a mouse MU-1-IF standard. Results are shown in the table below wherein results designated as “<” a certain number indicate that interferon was not detectable in amounts above the lower sensitivity level of the assay.

Regarding `CCOCc1nc2c(N)nc3ccccc3c2n1CC(C)C` [Example 40, 2-Ethoxymethyl-1-(2-methylpropyl)-1H-imidazo[4,5-c]quinolin-4-amine], the log reduction at 1 µg/mL in assay [1] was 7. Further, the log reduction at 5 µg/mL in assay [1] was 7. In addition, in assay [1], the log reduction at 10 µg/mL was determined as 6. Further, the Interferon-α induction was 680 α Reference Units/mL with interferon-α (dose concentration 0.10 μg/mL), 230 α Reference Units/mL with interferon-α (dose concentration 0.50 μg/mL), 210 α Reference Units/mL in the assay on interferon-α (dose concentration 1.0 μg/mL) and 210 α Reference Units/mL in the assay with interferon-α (dose concentration 5.0 μg/mL). Besides, the “Interferon induction in mice” value is recorded as 450 Reference Units/mL in the assay with interferon (oral 0.3 mg/kg, 1 hr); 200 Reference Units/mL with interferon (oral 0.3 mg/kg, 2 hr); <29 Reference Units/mL in the assay on interferon (oral 0.3 mg/kg, 4 hr); 450 Reference Units/mL with interferon (oral 1 mg/kg, 1 hr); 450 Reference Units/mL in the assay with interferon (oral 1 mg/kg, 2 hr); 110 Reference Units/mL in the assay with interferon (oral 1 mg/kg, 4 hr). For the same compound, the “Interferon induction in mice” value in the assay on interferon (oral 3 mg/kg, 1 hr) came out at 990 Reference Units/mL; with interferon (oral 3 mg/kg, 2 hr), 1100 Reference Units/mL; in the assay on interferon (oral 3 mg/kg, 4 hr), 210 Reference Units/mL; in the assay on interferon (oral 10 mg/kg, 1 hr), 1600 Reference Units/mL; in the assay with interferon (oral 10 mg/kg, 2 hr), 1600 Reference Units/mL; in the assay with interferon (oral 10 mg/kg, 4 hr) it was 170 Reference Units/mL.

With `CCOCc1nc2c(N)nc3ccccc3c2n1CCCOC` [Example 44, 2-Ethoxymethyl-1-(3-methoxypropyl)-1H-imidazo[4,5-c]quinolin-4-amine], the log reduction at 0.1 µg/mL in assay [1] was determined as 3. In assay [1], the log reduction at 0.5 µg/mL turned out to be 4. In addition, in assay [1], the log reduction at 1 µg/mL came out at 7. Moreover, the Interferon-α induction with interferon-α (dose concentration 0.10 μg/mL) is 3000 α Reference Units/mL; in the assay on interferon-α (dose concentration 0.50 μg/mL) it was 430 α Reference Units/mL; in the assay with interferon-α (dose concentration 1.0 μg/mL) it was 430 α Reference Units/mL; in the assay on interferon-α (dose concentration 5.0 μg/mL), 760 α Reference Units/mL. Besides, the “Interferon induction in mice” value with interferon (oral 0.3 mg/kg, 1 hr) is given as “˜570 Reference Units/mL”; in the assay with interferon (oral 0.3 mg/kg, 2 hr), 510 Reference Units/mL; in the assay with interferon (oral 0.3 mg/kg, 4 hr), <260 Reference Units/mL; with interferon (oral 1 mg/kg, 1 hr), 990 Reference Units/mL; in the assay on interferon (oral 1 mg/kg, 2 hr), <260 Reference Units/mL; in the assay with interferon (oral 1 mg/kg, 4 hr), <260 Reference Units/mL. In addition, the “Interferon induction in mice” value is on record as 1000 Reference Units/mL in the assay on interferon (oral 3 mg/kg, 1 hr); 1500 Reference Units/mL in the assay on interferon (oral 3 mg/kg, 2 hr); <260 Reference Units/mL in the assay with interferon (oral 3 mg/kg, 4 hr); 1800 Reference Units/mL in the assay on interferon (oral 10 mg/kg, 1 hr); 1600 Reference Units/mL in the assay on interferon (oral 10 mg/kg, 2 hr); 790 Reference Units/mL with interferon (oral 10 mg/kg, 4 hr).
